Data from article PMC12475274, “Harnessing indole scaffolds to identify small-molecule IRE1α inhibitors modulating XBP1 mRNA splicing” (Nature Communications, 2025).

Legend:
Experiment in all cases: Kinase profiling (SelectScreen), ZLYTE
Type in all cases: biochemical
PLK1 = PLK1 (Homo sapiens, UniProt P53350)
Method: (§1) Kinase profiling was conducted by the SelectScreen Kinase Profiling Services (Thermo Fisher), using Z′-LYTE, Adapta, or LanthaScreen Eu Kinase Binding Assay for different kinases. The kinome phylogenetic tree was generated using the KinMap web portal.

BTK = BTK (Homo sapiens, UniProt Q06187)
Method: as §1

PIM1 = PIM1 (Homo sapiens, UniProt P11309)
Method: as §1

AURKA (Aurora A) = AURKA (Aurora A) (Homo sapiens, UniProt O14965)
Method: as §1

EPHA2 = EPHA2 (Homo sapiens, UniProt P29317)
Method: as §1

AKT1 (PKB alpha) = AKT1 (PKB alpha) (Homo sapiens, UniProt P31749)
Method: as §1

INSR = INSR (Homo sapiens, UniProt P06213)
Method: as §1

MAP2K6 (MKK6) = MAP2K6 (MKK6) (Homo sapiens, UniProt P52564); settings: IA107 at 5 μM; ATP 100 μM
Method: as §1

RPS6KB1 (p70S6K) = RPS6KB1 (p70S6K) (Homo sapiens, UniProt P23443)
Method: as §1

PDGFRB (PDGFR beta) = PDGFRB (PDGFR beta) (Homo sapiens, UniProt P09619)
Method: as §1

CLK2 = CLK2 (Homo sapiens, UniProt P49760)
Method: as §1

MARK2 = MARK2 (Homo sapiens, UniProt Q7KZI7)
Method: as §1

CSNK2A1 (CK2 alpha 1) = CSNK2A1 (CK2 alpha 1) (Homo sapiens, UniProt P68400)
Method: as §1

FLT3 = FLT3 (Homo sapiens, UniProt P36888)
Method: as §1

GSK3B (GSK3 beta) = GSK3B (GSK3 beta) (Homo sapiens, UniProt P49841)
Method: as §1

DYRK3 = DYRK3 (Homo sapiens, UniProt O43781)
Method: as §1

PAK4 = PAK4 (Homo sapiens, UniProt O96013)
Method: as §1

HIPK4 = HIPK4 (Homo sapiens, UniProt Q8NE63)
Method: as §1

AMPK A1/B1/G1 = AMPK A1/B1/G1 (Homo sapiens, UniProt Q13131)
Method: as §1

ROCK1 = ROCK1 (Homo sapiens, UniProt Q13464)
Method: as §1

FRAP1 (mTOR) = FRAP1 (mTOR) (Homo sapiens, UniProt P42345)
Method: as §1

PHKG2 = PHKG2 (Homo sapiens, UniProt P15735)
Method: as §1

PTK2 (FAK) = PTK2 (FAK) (Homo sapiens, UniProt Q05397)
Method: as §1

STK4 (MST1) = STK4 (MST1) (Homo sapiens, UniProt Q13043)
Method: as §1

ABL1 = ABL1 (Homo sapiens, UniProt P00519)
Method: as §1

FGFR1 = FGFR1 (Homo sapiens, UniProt P11362)
Method: as §1

PRKD1 (PKC mu) = PRKD1 (PKC mu) (Homo sapiens, UniProt Q15139)
Method: as §1

JAK3 = JAK3 (Homo sapiens, UniProt P52333)
Method: as §1

MAPK14 (p38 alpha) = MAPK14 (p38 alpha) (Homo sapiens, UniProt Q16539); settings: IA107 at 5 μM; ATP 100 μM
Method: as §1

PRKACA (PKA) = PRKACA (PKA) (Homo sapiens, UniProt P17612)
Method: as §1

CDK1/cyclin B = CDK1/cyclin B (Homo sapiens, UniProt P06493)
Method: as §1

IGF1R = IGF1R (Homo sapiens, UniProt P08069)
Method: as §1

CHEK1 (CHK1) = CHEK1 (CHK1) (Homo sapiens, UniProt O14757)
Method: as §1

MET (cMet) = MET (cMet) (Homo sapiens, UniProt P08581)
Method: as §1

KIT = KIT (Homo sapiens, UniProt P10721)
Method: as §1

LCK = LCK (Homo sapiens, UniProt P06239)
Method: as §1

CAMK1D (CaMKI delta) = CAMK1D (CaMKI delta) (Homo sapiens, UniProt Q8IU85)
Method: as §1

ACVR1B (ALK4) = ACVR1B (ALK4) (Homo sapiens, UniProt P36896)
Method: as §1

DNA-PK = DNA-PK (Homo sapiens, UniProt P78527)
Method: as §1

SRC = SRC (Homo sapiens, UniProt P12931)
Method: as §1

DYRK1A = DYRK1A (Homo sapiens, UniProt Q13627)
Method: as §1

Sequence of CHEK1 (CHK1) (O14757 whole entry): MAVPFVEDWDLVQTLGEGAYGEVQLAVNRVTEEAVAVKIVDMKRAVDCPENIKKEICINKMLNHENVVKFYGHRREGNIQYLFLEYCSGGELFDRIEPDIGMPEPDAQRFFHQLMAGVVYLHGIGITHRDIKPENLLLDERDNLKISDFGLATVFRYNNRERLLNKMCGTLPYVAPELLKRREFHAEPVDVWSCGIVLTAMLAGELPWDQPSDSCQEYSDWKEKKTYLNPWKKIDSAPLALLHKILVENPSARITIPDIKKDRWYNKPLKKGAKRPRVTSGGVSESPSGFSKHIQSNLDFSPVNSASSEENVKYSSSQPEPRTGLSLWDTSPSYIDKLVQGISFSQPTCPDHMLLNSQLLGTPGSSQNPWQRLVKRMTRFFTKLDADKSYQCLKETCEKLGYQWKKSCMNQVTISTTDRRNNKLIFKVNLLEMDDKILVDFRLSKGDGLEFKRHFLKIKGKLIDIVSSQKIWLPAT
Sequence of FLT3 (P36888 27-993): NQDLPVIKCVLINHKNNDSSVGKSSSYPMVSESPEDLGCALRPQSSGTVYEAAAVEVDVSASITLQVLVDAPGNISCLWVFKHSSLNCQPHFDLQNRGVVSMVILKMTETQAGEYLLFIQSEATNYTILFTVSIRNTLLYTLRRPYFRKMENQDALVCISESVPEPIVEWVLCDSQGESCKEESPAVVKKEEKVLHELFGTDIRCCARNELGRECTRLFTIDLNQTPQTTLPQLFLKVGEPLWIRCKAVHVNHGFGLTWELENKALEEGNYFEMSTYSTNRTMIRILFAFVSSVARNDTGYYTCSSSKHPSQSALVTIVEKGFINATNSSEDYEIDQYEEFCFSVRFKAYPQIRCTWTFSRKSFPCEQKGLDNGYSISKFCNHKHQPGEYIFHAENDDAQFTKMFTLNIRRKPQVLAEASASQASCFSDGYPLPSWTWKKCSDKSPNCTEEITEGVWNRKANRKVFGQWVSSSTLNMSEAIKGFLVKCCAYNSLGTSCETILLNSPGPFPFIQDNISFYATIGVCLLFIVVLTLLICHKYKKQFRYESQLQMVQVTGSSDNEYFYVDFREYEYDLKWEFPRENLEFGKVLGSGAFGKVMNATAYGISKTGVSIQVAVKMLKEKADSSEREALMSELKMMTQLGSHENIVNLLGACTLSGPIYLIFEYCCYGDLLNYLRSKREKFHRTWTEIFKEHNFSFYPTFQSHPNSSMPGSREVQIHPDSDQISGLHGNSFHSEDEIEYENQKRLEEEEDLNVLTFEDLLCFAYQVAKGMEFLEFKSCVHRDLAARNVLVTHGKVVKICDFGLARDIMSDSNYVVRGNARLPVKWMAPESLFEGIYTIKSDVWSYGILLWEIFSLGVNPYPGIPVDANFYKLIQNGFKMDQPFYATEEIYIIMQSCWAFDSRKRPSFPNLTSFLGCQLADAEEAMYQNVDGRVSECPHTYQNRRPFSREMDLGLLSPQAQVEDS
Sequence of CLK2 (P49760 whole entry): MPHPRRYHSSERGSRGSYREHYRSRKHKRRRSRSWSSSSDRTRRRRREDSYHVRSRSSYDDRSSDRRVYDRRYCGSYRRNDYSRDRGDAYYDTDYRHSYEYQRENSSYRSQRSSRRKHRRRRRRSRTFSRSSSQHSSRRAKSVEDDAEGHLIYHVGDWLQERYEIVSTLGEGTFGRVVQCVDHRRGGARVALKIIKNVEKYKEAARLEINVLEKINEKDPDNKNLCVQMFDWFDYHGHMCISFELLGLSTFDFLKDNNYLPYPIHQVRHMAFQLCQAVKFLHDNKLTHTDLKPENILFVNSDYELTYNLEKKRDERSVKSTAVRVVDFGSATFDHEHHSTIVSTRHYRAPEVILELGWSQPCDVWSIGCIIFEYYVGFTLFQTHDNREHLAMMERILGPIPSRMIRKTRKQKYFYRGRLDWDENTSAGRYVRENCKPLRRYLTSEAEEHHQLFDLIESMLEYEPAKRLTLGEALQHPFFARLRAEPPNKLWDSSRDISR
Sequence of HIPK4 (Q8NE63 whole entry): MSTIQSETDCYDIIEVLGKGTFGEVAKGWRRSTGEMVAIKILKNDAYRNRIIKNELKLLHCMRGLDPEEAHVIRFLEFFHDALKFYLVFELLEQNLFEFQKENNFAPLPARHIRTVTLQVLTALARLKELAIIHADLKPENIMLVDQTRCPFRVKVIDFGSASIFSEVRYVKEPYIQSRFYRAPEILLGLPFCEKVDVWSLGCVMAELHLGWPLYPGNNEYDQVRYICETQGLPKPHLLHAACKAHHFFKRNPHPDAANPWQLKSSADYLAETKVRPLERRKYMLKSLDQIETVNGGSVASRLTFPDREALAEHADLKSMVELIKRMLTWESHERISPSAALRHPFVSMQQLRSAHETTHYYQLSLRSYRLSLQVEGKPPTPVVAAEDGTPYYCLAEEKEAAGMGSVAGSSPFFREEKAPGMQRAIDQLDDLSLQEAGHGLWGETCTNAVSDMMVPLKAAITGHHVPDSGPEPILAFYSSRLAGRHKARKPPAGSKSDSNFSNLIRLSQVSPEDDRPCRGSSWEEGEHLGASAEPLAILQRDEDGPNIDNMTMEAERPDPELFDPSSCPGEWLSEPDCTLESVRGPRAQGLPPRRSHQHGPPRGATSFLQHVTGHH
Sequence of STK4 (MST1) (Q13043 whole entry): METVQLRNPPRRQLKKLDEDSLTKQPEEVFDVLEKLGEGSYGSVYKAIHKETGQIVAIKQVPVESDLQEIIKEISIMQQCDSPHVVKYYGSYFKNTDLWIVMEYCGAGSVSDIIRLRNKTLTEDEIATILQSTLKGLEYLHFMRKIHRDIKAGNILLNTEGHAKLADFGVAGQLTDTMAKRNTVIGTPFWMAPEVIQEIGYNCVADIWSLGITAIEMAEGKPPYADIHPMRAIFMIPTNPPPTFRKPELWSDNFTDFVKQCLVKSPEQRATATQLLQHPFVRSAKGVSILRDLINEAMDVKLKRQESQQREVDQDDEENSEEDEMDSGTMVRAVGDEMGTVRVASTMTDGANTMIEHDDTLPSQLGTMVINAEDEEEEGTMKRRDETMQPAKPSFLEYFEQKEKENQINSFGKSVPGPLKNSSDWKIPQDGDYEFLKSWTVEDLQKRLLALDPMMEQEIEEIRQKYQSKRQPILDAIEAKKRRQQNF
Sequence of PHKG2 (P15735 whole entry): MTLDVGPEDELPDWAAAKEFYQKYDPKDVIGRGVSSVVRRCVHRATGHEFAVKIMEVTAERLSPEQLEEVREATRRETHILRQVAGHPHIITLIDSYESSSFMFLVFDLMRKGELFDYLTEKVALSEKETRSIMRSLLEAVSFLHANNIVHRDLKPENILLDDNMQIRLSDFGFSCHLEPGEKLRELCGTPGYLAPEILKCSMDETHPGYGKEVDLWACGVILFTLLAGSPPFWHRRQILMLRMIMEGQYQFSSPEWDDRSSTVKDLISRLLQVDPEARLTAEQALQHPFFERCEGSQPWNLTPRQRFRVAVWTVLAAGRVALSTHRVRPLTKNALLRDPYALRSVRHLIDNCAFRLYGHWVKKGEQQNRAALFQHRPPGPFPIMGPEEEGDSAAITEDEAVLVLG
Sequence of AKT1 (PKB alpha) (P31749 whole entry): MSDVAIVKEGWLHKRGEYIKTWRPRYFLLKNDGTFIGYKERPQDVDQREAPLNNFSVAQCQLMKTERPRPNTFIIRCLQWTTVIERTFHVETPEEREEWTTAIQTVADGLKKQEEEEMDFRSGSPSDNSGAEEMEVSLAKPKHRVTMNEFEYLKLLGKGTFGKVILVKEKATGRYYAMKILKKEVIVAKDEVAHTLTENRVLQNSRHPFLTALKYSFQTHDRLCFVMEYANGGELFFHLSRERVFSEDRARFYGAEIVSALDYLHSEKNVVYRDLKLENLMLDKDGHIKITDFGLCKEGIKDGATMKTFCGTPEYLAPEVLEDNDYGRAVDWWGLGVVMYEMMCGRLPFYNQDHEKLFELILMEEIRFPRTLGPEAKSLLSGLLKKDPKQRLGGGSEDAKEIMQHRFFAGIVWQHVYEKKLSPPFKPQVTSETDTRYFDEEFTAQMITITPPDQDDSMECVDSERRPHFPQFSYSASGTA
Sequence of DYRK3 (O43781 whole entry): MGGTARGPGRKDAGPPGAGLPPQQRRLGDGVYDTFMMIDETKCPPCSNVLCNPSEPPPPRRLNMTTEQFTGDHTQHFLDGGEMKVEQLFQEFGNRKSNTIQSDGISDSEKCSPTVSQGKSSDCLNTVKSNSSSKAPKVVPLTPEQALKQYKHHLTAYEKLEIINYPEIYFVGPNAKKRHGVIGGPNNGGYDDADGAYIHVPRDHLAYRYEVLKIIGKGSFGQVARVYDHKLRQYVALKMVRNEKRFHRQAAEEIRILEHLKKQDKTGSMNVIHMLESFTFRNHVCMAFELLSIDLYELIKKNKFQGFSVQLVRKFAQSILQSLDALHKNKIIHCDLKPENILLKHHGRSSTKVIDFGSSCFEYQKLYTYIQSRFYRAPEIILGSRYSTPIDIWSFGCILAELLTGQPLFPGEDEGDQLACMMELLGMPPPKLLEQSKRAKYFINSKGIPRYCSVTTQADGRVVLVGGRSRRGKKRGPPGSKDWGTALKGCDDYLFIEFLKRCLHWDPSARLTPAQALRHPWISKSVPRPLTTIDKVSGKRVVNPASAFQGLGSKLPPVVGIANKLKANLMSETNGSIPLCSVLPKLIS
Sequence of CSNK2A1 (CK2 alpha 1) (P68400 whole entry): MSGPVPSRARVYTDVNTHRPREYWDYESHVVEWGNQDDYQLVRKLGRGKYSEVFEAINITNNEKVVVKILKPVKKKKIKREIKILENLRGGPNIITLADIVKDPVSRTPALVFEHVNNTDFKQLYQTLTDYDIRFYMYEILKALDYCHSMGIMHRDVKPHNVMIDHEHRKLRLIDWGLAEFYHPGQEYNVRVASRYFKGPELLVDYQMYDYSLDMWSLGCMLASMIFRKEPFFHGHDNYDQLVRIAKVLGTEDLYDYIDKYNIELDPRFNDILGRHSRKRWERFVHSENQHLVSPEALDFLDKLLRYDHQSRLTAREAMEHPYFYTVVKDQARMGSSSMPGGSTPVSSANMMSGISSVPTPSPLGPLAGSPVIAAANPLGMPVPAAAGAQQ

Cc1c(CCC(=O)O)c2cc(Br)ccc2n1C(=O)c1ccccc1 [IA107]
inhibition at 5 µM (PLK1): 3% | inhibition at 5 µM (BTK): 8% | inhibition at 5 µM (PIM1): 39% | inhibition at 5 µM (AURKA (Aurora A)): 5% | inhibition at 5 µM (EPHA2): 4% | inhibition at 5 µM (AKT1 (PKB alpha)): 0% | inhibition at 5 µM (INSR): 5% | inhibition at 5 µM (MAP2K6 (MKK6)): 2% | inhibition at 5 µM (RPS6KB1 (p70S6K)): 3% | inhibition at 5 µM (PDGFRB (PDGFR beta)): 0% | inhibition at 5 µM (CLK2): 7% | inhibition at 5 µM (MARK2): 8% | inhibition at 5 µM (CSNK2A1 (CK2 alpha 1)): 6% | inhibition at 5 µM (FLT3): 6% | inhibition at 5 µM (GSK3B (GSK3 beta)): 21% | inhibition at 5 µM (DYRK3): 2% | inhibition at 5 µM (PAK4): -3% | inhibition at 5 µM (HIPK4): 6% | inhibition at 5 µM (AMPK A1/B1/G1): 9% | inhibition at 5 µM (ROCK1): 1% | inhibition at 5 µM (FRAP1 (mTOR)): 5% | inhibition at 5 µM (PHKG2): 26% | inhibition at 5 µM (PTK2 (FAK)): 4% | inhibition at 5 µM (STK4 (MST1)): 0% | inhibition at 5 µM (ABL1): 3% | inhibition at 5 µM (FGFR1): 4% | inhibition at 5 µM (PRKD1 (PKC mu)): 0% | inhibition at 5 µM (JAK3): 0% | inhibition at 5 µM (MAPK14 (p38 alpha)): 6% | inhibition at 5 µM (PRKACA (PKA)): 9% | inhibition at 5 µM (CDK1/cyclin B): 4% | inhibition at 5 µM (IGF1R): 3% | inhibition at 5 µM (CHEK1 (CHK1)): 10% | inhibition at 5 µM (MET (cMet)): 3% | inhibition at 5 µM (KIT): 0% | inhibition at 5 µM (LCK): 8% | inhibition at 5 µM (CAMK1D (CaMKI delta)): 8% | inhibition at 5 µM (ACVR1B (ALK4)): -5% | inhibition at 5 µM (DNA-PK): -2% | inhibition at 5 µM (SRC): 4% | inhibition at 5 µM (DYRK1A): 4%
